Where a name gives a salt, the structure may show the parent alone. Read-outs that look alike come from different tables or passages of the source.
Key:
[1] = system: primary astrocytes (HA cells); test: ATP-Glo dose-response, primary astrocytes; format: cell-based, human; conditions: Homo sapiens, Astrocyte; for EC50: ATP Glo readout, 24 h treatment
[2] = system: human colon cancer cell line HT29; parameters: method as in PMID 1888153; conditions: ref [58], read-out: EC50, decrease of proliferation; cited from earlier work
proliferating OB1 GSCs = test: ATP-Glo dose-response, proliferating OB1 GSCs; format: cell-based; conditions: Homo sapiens; ATP Glo readout, 24 h treatment; read-out: P OB1 GSCs EC50
Protocol: (§1) The EC50 value was determined for each compound by fitting the data points according to the following equation: y=Smax+Smin*(x*1/EC50)^n/1+(x*1/EC50)^n where y represents the expected response, x is the chemical compound concentration, S max and S min are the maximum and minimum responses recorded, respectively and n is the Hill coefficient. Curve fitting was performed using Microsoft Excel Solver component.
(§2) Similar dose response curves were performed using GSCs isolated from GBM of two other patients (TG16 and OB1 GSCs) grown under proliferating and quiescent conditions.

quiescent OB1 GSCs = test: ATP-Glo dose-response, quiescent OB1 GSCs; format: cell-based, human; conditions: Homo sapiens; ATP Glo readout, 24 h treatment; read-out: Q OB1 GSCs EC50
Protocol: as §1, §2

proliferating TG16 GSCs = test: ATP-Glo dose-response, proliferating TG16 GSCs; format: cell-based, human; conditions: Homo sapiens; ATP Glo readout, 24 h treatment; read-out: P TG16 GSCs EC50
Protocol: as §1, §2

proliferating TG1 GSCs [3] = test: ATP-Glo dose-response, proliferating TG1 GSCs; format: cell-based, human; conditions: Homo sapiens
Protocol: as §1
(§3) Proliferating or quiescent TG1 cells were seeded in 50 μL of their respective media (30 000 and 40 000 viable cells/well, respectively) into 96-well opaque bottom plates (Greiner, Courtaboeuf, France). Compound treatment was performed by adding 50 μL of compound solutions (in the presence of 2% DMSO in culture medium). […] All compounds were tested in triplicate in each experiment. Independent experiments were performed at least twice for almost all of the compounds.

quiescent TG1 GSCs [4] = test: ATP-Glo dose-response, quiescent TG1 GSCs; format: cell-based, human
Protocol: as §1, §3

HEK 293 cells = test: ATP-Glo dose-response, HEK 293 cells; format: cell-based, human; conditions: Homo sapiens, HEK293; ATP Glo readout, 24 h treatment
Protocol: as §1, with “component. […]” for “component.”

[5] = system: fetal neural stem cells (f-NSC); test: ATP-Glo dose-response, fetal neural stem cells; format: cell-based; conditions: Homo sapiens, Neural stem cell; ATP Glo readout, 24 h treatment
quiescent TG16 GSCs = test: ATP-Glo dose-response, quiescent TG16 GSCs; format: cell-based, human; conditions: Homo sapiens; ATP Glo readout, 24 h treatment; read-out: Q TG16 GSCs EC50
Protocol: as §1, §2

proliferating TG1 GSCs [6] = conditions: primary screen, 50 μM, 24 h
How it was run: (§4)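 Cells seeded at 30 000 (proliferating) or 40 000 (quiescent) viable cells/well and treated with compound at 50 μM final, 1% DMSO, single test; hits retested in duplicate at 50 and 5 μM. ATP measured by luminescence, as percent of the mean signal of DMSO control wells.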

quiescent TG1 GSCs [7] = conditions: primary screen, 50 μM, 24 h
How it was run: as §4

Solubility measurements = format: physicochemical; conditions: data not shown
Astrocytes = system: Astrocytes; parameters: method as in PMID 23039130; conditions: literature, ref [104]; cited from earlier work
quiescent TG1 cells = test: Cell viability, trypan blue staining, quiescent TG1 cells; format: cell-based, human; conditions: quiescent TG1 GSCs, 10 μM, 24 hours
Protocol: Cell mortality was evaluated by trypan blue staining (0.1% (v/v)).

[8] = 24 h, ATP Glo readout, 24 h treatment, n = 3, read-out: P TG1 GSCs EC50
[9] = Homo sapiens, 24 h, ATP Glo readout, 24 h treatment, n = 3, read-out: Q TG1 GSCs EC50

Structure (SMILES) | EC50 [1] | EC50 (proliferating OB1 GSCs) | EC50 (quiescent OB1 GSCs) | EC50 (proliferating TG16 GSCs) | EC50 (proliferating TG1 GSCs [3]; [8]) | EC50 (quiescent TG1 GSCs [4]; [9]) | EC50 (HEK 293 cells) | EC50 [5] | EC50 (quiescent TG16 GSCs) | Activity on proliferating TG1 GSCs (hit compounds reducing ATP levels) (proliferating TG1 GSCs [6]) | Activity on quiescent TG1 GSCs (hit compounds reducing ATP levels) (quiescent TG1 GSCs [7]) | other results
C1CCC(C(CC2CCCCN2)C2CCCCC2)CC1 (stereo not shown) [Perhexilin maleate] | 12 ± 2 µM | 12 ± 1 µM | 22 ± 4 µM | 11 ± 1 µM | 10 ± 1 µM | 14 ± 3 µM | 12 ± 1 µM | 3 ± 1 µM | 21 ± 4 µM | yes | yes | EC50 [2]: ~10 µM
c1ccc(C(c2ccccc2)c2ccccn2)cc1 [Compound 6, Diphenyl-2-pyridylmethane] |  |  |  |  |  |  |  |  |  |  |  | EC50 (proliferating TG1 GSCs [3]; 24 h, SAR study, ATP-Glo cell survival assay, 24 h, triplicate, read-out: Proliferating TG1 GSCs EC50): > 100 µM; EC50 (quiescent TG1 GSCs [4]; Homo sapiens, 24 h, SAR study, ATP-Glo cell survival assay, 24 h, triplicate, read-out: Quiescent TG1 GSCs EC50): 84.8 ± 4.1 µM; solubility (Solubility measurements): not due to reduced solubility
C=C1C(=O)O[C@H]2[C@H]1CC/C(C)=C/CC[C@@]1(C)O[C@@H]21 [Parthenolide] | 59 ± 4 µM | 18 ± 4 µM | 35 ± 11 µM | 10 ± 2 µM | 15 ± 2 µM | 48 ± 6 µM | 13 ± 5 µM | 8.4 ± 0.2 µM |  | yes | yes | EC50 (Astrocytes): 186 ± 10 µM
CC(=O)Oc1ccc(C(c2ccc(OC(C)=O)cc2)c2ccccn2)cc1 [Compound 1, 4,4'-diacetoxydiphenyl-2-pyridyl-methane] | 0.6 ± 0.3 µM | > 100 µM | 0.5 ± 0.1 µM | > 100 µM | > 100 µM | ~1 µM | > 100 µM | > 100 µM | 1.3 ± 0.1 µM |  | yes | Emax ([1]; HA cells, not due to cell death, read-out: maximum effect: reduction of ATP levels): 30%; EC50 (quiescent TG1 GSCs [4]; ATP Glo readout, 24 h treatment, n = 3, listed as Bisacodyl, read-out: Q TG1 GSCs EC50): 1.07 ± 0.04 µM; cell viability (trypan blue and 7-AAD staining) (quiescent TG1 cells): resulted from cell death
CC[C@H](C)[C@H]1O[C@]2(CC[C@@H]1C)C[C@@H]1C[C@@H](C/C=C(\C)[C@@H](O[C@H]3C[C@H](OC)[C@@H](O[C@H]4C[C@H](OC)[C@@H](O)[C@H](C)O4)[C@H](C)O3)[C@@H](C)/C=C/C=C3\CO[C@@H]4[C@H](O)C(C)=C[C@@H](C(=O)O1)[C@]34O)O2 [Ivermectin] | 3 ± 1 µM | 3 ± 1 µM | 7 ± 2 µM | 1.5 ± 0.2 µM |  |  | 13 ± 1 µM | 4 ± 1 µM | 6 ± 2 µM | yes | yes | EC50 (proliferating TG1 GSCs [3]; ATP Glo readout, 24 h treatment, n = 3, read-out: P TG1 GSCs EC50): 3 ± 1 µM; EC50 (quiescent TG1 GSCs [4]; Homo sapiens, ATP Glo readout, 24 h treatment, n = 3, read-out: Q TG1 GSCs EC50): 4 ± 1 µM
Cc1c2ccncc2c(C)c2c1[nH]c1ccccc12 [Ellipticine] | 5 ± 1 µM | 8 ± 1 µM | 30 ± 9 µM | 13 ± 1 µM | 13 ± 1 µM | 19 ± 5 µM | 13 ± 2 µM | 7 ± 2 µM | 56 ± 10 µM | yes | yes | 

— PMC4536076, “Chemical Library Screening and Structure-Function Relationship Studies Identify Bisacodyl as a Potent and Selective Cytotoxic Agent Towards Quiescent Human Glioblastoma Tumor Stem-Like Cells” (PLoS ONE, 2015)
